Experimental data taken from US20090018197A1, “METHODS FOR TREATING STATUS E[…] RELATED CONDITIONS” (priority 2003, published 2009).

Legend:
Assay type in all cases: in vivo, rat
[1] = tested on: self-sustaining status epilepticus (SSSE); assay: Experiment 1a: SSSE after electrical stimulation of the perforant path (60 min stimulation); conditions: male Wistar rats, i.v. 10 min after end of 60 min perforant path stimulation; SPM 927 50 mg/kg, PHT 50 mg/kg, DZP 10 mg/kg; vs control
Procedure: (§1) Animals: The experiments were performed on male Wistar rats, 280-300 g (Simonsen Labs, Calif.). Animals were kept at a constant room temperature with 12 hours artificial dark-light cycle with free access to standard diet and tap water.
(§2) Surgery: Under ketamine (60 mg/kg)/xylazine (15 mg/kg) anesthesia, animals were implanted with a bipolar stimulating electrode into the angular bundle of the perforant path (4.5 mm to left lambda, 1 mm anterior to lambdoid fissure) and a bipolar recording electrode into the granule cell layer of the ipsilateral dentate gyrus (3.5 mm anterior to lambda, 2.2 mm left to sagittal fissure). Depth of both electrodes was optimized by monitoring the amplitude and waveform of the population spike evoked from the dentate gyrus by stimuli delivered through the perforant path (single square wave monophasic stimuli, 20 V, 0.1 ms delivered every 10 s).
(§3) Induction of self-sustaining status epilepticus (SSSE): Seven days after surgery, animals were connected to a Cardionics 16 channel preamplifier, which was connected to the IBM computer. After 5 minutes of baseline EEG recording, animals were stimulated in the awake state for 60 minutes (Experiment 1a) or 30 minutes (Experiments 1b and 1c) with 10 s 20 Hz trains (1 ms square wave, 20 V) delivered every minute, together with 2 Hz continuous stimulation with the same parameters.
(§4) EEG monitoring and analysis: EEG from the dentate gyrus was monitored and recorded by means of commercial software (Monitor 8.1 from Stellate Systems). The software was configured for automatic detection and saving of spikes and seizures. Monitoring was performed for 24 hrs. EEG was analyzed off line by means of the same software. Spike distribution was presented as number of spikes per 10 min epoch, and the cumulated duration of seizures for 24 hrs of monitoring were calculated. Statistical analysis was performed by means of T-test. A p value less than 0.05 was considered statistically significant.
(§5) Drug administration: SPM 927 (50 mg/kg, 5 animals), phenyloin (PHT) (50 mg/kg), fosphenyloin (F-PTH, Parke-Davis, 50 mg/kg of phenyloin equivalent, 5 animals), diazepam (DZP) (10 mg/kg) or vehicle (VEH, 10% DMSO, 6 animals) were given i.v. 10 min after the end of perforant path stimulation in a volume of 1 ml/kg.

[2] = tested on: self-sustaining status epilepticus (SSSE); assay: Experiment 1b: SSSE after electrical stimulation of the perforant path (30 min stimulation), SPM 927 vs fosphenyloin; conditions: male Wistar rats, 50 mg/kg i.v. 10 min after end of 30 min stimulation; for spike frequency (number of spikes/10 min): vs control
Procedure: as §1, §2, §3, §4, §5

[3] = tested on: generalized tonic-clonic seizures (GTCS) in chemically induced SSSE; assay: Experiment 2: chemically induced SSSE (cobalt/homocysteine thiolactone); conditions: for mean # GTCS: Sprague-Dawley rats
Procedure: Male Sprague-Dawley rats were prepared surgically with cobalt powder on the left frontal cortical surface.
Recording and stimulation protocol: Four epidural recording electrodes were arranged in a square grid (5 mm) over the cobalt lesion. EEG was monitored daily beginning 4-5 days following surgery. Status epilepticus was induced by i.p. injection of 5.5 mmol/kg homocysteine thiolactone whenever focal motor behaviour and EEG seizures were observed.
Drug administration: SPM 927 was administered (10-100 mg/kg) immediately following the second generalized tonic-clonic seizure (GTCS) occurring after homocysteine thiolactone injection.

[4] = tested on: hippocampal damage following SSSE; assay: Experiment 1c: hippocampal damage following SSSE (damaged neuron score); conditions: for hippocampal damage score, CA1 / hippocampal damage score, CA3 / hippocampal damage score, Hilus / hippocampal damage score, Subiculum: scale 0-5, brains collected 72 hours after SSSE
Procedure: as §1, §2, §3, §5
Collection of tissue: Brains were collected 72 hours after SSSE. This was accomplished by transcardial perfusion with first heparinized normal saline for about 2 minutes to largely clear the vasculature of blood and second by phosphate buffered formaldehyde (10% formaldehyde at pH 7.4) for 10 to 15 min (approximately 50 to 60 ml). Carcasses were placed in the refrigerator overnight to further firm the tissue and the brains were dissected from the heads the following day.
Preparation of brain sections for light microscopy: after Removal, the Brains were passed through a graded series of alcohol and clearing agent (Hemo-De, Fisher) and then embedded in paraffin. Serial 8 micron-thick coronal sections were cut from the embedded tissue at approximately 100 micron intervals and float mounted onto microscope slides. The sections were stained with hematoxylin and eosin and coverslipped.
Selection of sections for counting: Selection of sections for counting was controlled by the stereotaxic atlas for rats (Paxinos and Watson). The 3 sections selected for quantitation contained dorsal hippocampus and were 1.6±0.05 mm posterior to bregma.
Location of counting fields—damage to the pyramidal cell layer was assessed by counting damaged neurons in the subiculum, CA1, CA3, CA3c and the hilus in the dorsal hippocampus. The neurons were assessed individually from the beginning of the subiculum to the end of the CA3c region using an Olympus Provis Ax 70 microscope at a magnification of 40×. The CA3-CA3c transition was defined by a line connecting the extremeties of the blades of the dentate gyrus. The hilus was defined as the space located between the blades of the dentate gyrus, excluding the line of CA3c pyramids.
Criteria for differentiation of damaged versus non-damaged neurons—neurons were counted only if the majority of the nucleus was present in the section. Damaged neurons were counted if they were distinctly eosinophilic or distinctly pyknotic or both. All other cells with most of the nucleus present in the section (and counting field) were counted as not damaged. Each brain was assessed on left side and right side individually and also combined. The counting fields were individually divided into subiculum, CA1, CA3, CA3c and hilus. […]

[5] = 10 mg/kg, 30 min following treatment
[6] = 20 mg/kg, 30 min following treatment
[7] = 40 mg/kg, 30 min following treatment
[8] = 80 mg/kg, 30 min following treatment

With `CN1C(=O)CN=C(c2ccccc2)c2cc(Cl)ccc21` [DZP, diazepam] the “cumulative seizure duration over the 24 h period” value [1] was “potently and significantly reduced” and the “time to the last seizure” value [1] was “potently and significantly reduced”.
With `O=C1NC(c2ccccc2)(c2ccccc2)C(=O)N1COP(=O)(O)O` [Fosphenyloin, fosphenyloin, reference compound] the “time until seizures stopped after injection” value [2] was at most 15 min and the “spike frequency (number of spikes/10 min)” value [2] was “significantly lower than in control animals but significantly higher than in SPM 927 treated rats”.
For `O=C1NC(=O)C(c2ccccc2)(c2ccccc2)N1` [PHT, phenyloin], the “cumulative seizure duration over the 24 h period” value [1] was “potently and significantly reduced” and the “time to the last seizure” value [1] was “potently and significantly reduced”.
With `COC[C@@H](NC(C)=O)C(=O)NCc1ccccc1` [SPM 927, (R)-2-acetamido-N-benzyl-3-methoxypropionamide] the “interval to 1st GTCS” value ([3]; 10 mg/kg) was 6.6 min, the “# rats with GTCS” value [3, 5] was 8/8 and the “mean # GTCS” value [3, 5] was 4.8. The “interval to 1st GTCS” value ([3]; 20 mg/kg) was 8.9 min, the “# rats with GTCS” value [3, 6] was 7/8 and the “mean # GTCS” value [3, 6] was 2.7. For the same molecule, the “interval to 1st GTCS” value ([3]; 40 mg/kg) was 5.6 min, the “# rats with GTCS” value [3, 7] was 4/8 and the “mean # GTCS” value [3, 7] was 3.8. For the same molecule, the “interval to 1st GTCS” value ([3]; 80 mg/kg) was 14.0 min, the “# rats with GTCS” value [3, 8] was 3/8 and the “mean # GTCS” value [3, 8] was 2.7. For the same molecule, the “# rats with GTCS” value ([3]; 100 mg/kg, 30 min following treatment) was 0/8, the “number of rats experiencing GTCS” value ([3]; 10-100 mg/kg, 30 min following treatment) was “reduced in a dose-dependent fashion” and the “hippocampal damage score, CA1” value ([4]; Contralateral) was 1.2 ± 0.4. For the same molecule, the “hippocampal damage score, CA3” value ([4]; Contralateral) was 1.0 ± 0.0, the “hippocampal damage score, Hilus” value ([4]; Contralateral) was 1.4 ± 0.5 and the “hippocampal damage score, Subiculum” value ([4]; Contralateral) was 1.0 ± 0.0. For the same molecule, the “hippocampal damage score, CA1” value ([4]; Ipsilateral) was 1.0 ± 0.0, the “hippocampal damage score, CA3” value ([4]; Ipsilateral) was 1.0 ± 0.0 and the “hippocampal damage score, Hilus” value ([4]; Ipsilateral) was 1.2 ± 0.4. For the same molecule, the “hippocampal damage score, Subiculum” value ([4]; Ipsilateral) was 1.0 ± 0.0, the “injured neurons in any hippocampal field” value ([4]; treated rats following SSSE) was “only an occasional injured neuron” and the “seizure recurrence over the next 24 hrs” value [2] was “did not recur”. For the same molecule, the “time during which a few single spikes were recorded” value [2] was “about 12 hrs”, the “time until seizures stopped after injection” value [2] was at most 15 min and the “spike frequency (number of spikes/10 min)” value [2] was “significantly decreased”. For the same molecule, the “cumulative seizure duration over the 24 h period” value [1] was “potently and significantly reduced” and the “time to the last seizure” value [1] was “potently and significantly reduced”.
